Columns and labels:
[1] = tested on: primary human mesenchymal stem cells (hMSCs); test: Chondrogenesis induction in hMSCs (nodule count, relative to TGF-β3); type: cell-based; conditions: 6 days; for Conc (nM) of 50% TGF-β3 activity / Max. Activity as % TGF-β3 activity: TGF-β3 10 ng/mL positive control; for Conc (nM) of Max. activity: chondrogenic nodules
Text: Representative compounds were screened using primary human mesenchymal stem cells (hMSCs) to determine their ability to induce chondrogenesis (process by which cartilage is developed).
Human Mesenchymal Stem Cell Culture: Primary human mesenchymal stem cells (hMSCs) were purchased from Lonza (Walkersville, Md.) and expanded in Mesenchymal Stem Cell Growth Media (Lonza). Cells between passage 3 and 6 were used for the experiments.
Number of nodules in each well was normalized to the average of 3 DMSO treated wells on the same plate using Excel (Microsoft Inc.). The normalized averages (fold change over DMSO) of 3 replicate wells for each compound concentration were calculated. Due to solubility limitations of some of the compounds, curve fitting was incomplete leading to inaccurate EC50 determinations.
Using TGF-β3 as a positive control, the concentration of representative compounds required to induce equivalent levels of chondrogenesis is reported. In addition, the maximum activity of each compound and the respective dose that each compound reached maximum chondrogenesis activity is reported.

[2] = tested on: primary human fibroblasts derived from IPF patients (LL29 cells); test: Inhibition of TGF-β1 induced fibrosis (αSMA staining) in LL29 fibroblasts; type: cell-based; conditions: Fibroblast; for EC50: 96 h, LL29 cells, TGF-β1 20 ng/mL, 4 days, % αSMA positive cells
Method: Representative compounds were screened using primary human fibroblasts (derived from IPF patients) treated with TGF-β1 to determine their ability to inhibit the fibrotic process.
LL29 cells were plated at 1,500 cells/well in 70 μL/well F12 medium supplemented with 1% Fetal Bovine Serum. […] Wells treated with TGF-β1 and containing DMSO were used as positive control, and cells with only DMSO were negative control. […] Following incubation for 4 days, SYTOX green nucleic acid stain (Life Technologies [Thermo Fisher Scientific]) was added to the wells at a final concentration of 1 μM and incubated at room temperature for 30 min.

[3] = tested on: IL-6; test: IL-6 inhibition in LPS-stimulated human PBMCs (HTRF); type: cell-based; conditions: PBMC; for EC50: huPBMCs, LPS 50 ng/mL, 22 hours, IL-6 HTRF; for inhibition at 10 µM: read-out: percent inhibition at 10 μM
Method: Fresh Normal PB MNC (Catalog # PB001, AllCells, Alameda, Calif.) were shipped overnight at 4° C. and resuspended in Roswell Park Memorial Institute (RPMI) 1640 Medium, with GlutaMAX Supplement (Catalog #61870127, ThermoFisher Scientific, Waltham, Mass.) supplemented with 1% Penicillin-Streptomycin (Catalog #15140163, ThermoFisher Scientific, Waltham, Mass.) and 1% fetal bovine serum (FBS) (Catalog #16140089, ThermoFisher Scientific, Waltham, Mass.) assay media.
Compound Screening: Fresh normal human peripheral blood mononuclear cells (huPBMCs) were resuspended in 1% FBS-RPMI assay media with 1% Penicillin-Streptomycin 1% to a cell concentration of 1×10e6 cells/mL. […] 50 ng/mL of Lipopolysaccharides from Escherichia coli 0111:B4 (Catalog # L5293-2ML, Sigma-Aldrich, St. Louis, Mo.) was added after 2 hours and cells were incubated for another 22 hours at 37° C.-5% CO2. After 22 hour incubation, a mixture of anti-IL6 XL665 and anti-IL-6 Cryptate diluted in reconstitution buffer (Catalog #62IL6PEC, Cisbio Inc., Bedford, Mass.) was added to each well. Following incubation for 3 hours at room temperature, Homogeneous Time-Resolved Fluorescence (HTRF) was measured using the Envision (Perkin Elmer, Shelton, Conn.) at 665 nm and […]. The ratio of fluorescence at 665 nm to 620 nm was used as a readout for IL-6 quantification. All samples were processed in duplicate. Readings were normalized to DMSO treated cells and normalized activities were utilized for EC50 calculations. EC50 was determined using software generated by Dotmatics Limited (Windhill Bishops Stortford Herts, UK) using the Levenberg-Marquardt 4 parameter fitting procedure with finite different gradients.

[4] = target: recombinant GSK3β kinase (Homo sapiens (Human), UniProt P49841); test: GSK3β kinase assay (Ser/Thr 09 peptide Z-lyte, FRET); type: biochemical; conditions: 46 μM ATP, one hour at room temperature, read-out: EC50 (μM) (IC50 per method)
Sequence of recombinant GSK3β kinase (P49841 whole entry): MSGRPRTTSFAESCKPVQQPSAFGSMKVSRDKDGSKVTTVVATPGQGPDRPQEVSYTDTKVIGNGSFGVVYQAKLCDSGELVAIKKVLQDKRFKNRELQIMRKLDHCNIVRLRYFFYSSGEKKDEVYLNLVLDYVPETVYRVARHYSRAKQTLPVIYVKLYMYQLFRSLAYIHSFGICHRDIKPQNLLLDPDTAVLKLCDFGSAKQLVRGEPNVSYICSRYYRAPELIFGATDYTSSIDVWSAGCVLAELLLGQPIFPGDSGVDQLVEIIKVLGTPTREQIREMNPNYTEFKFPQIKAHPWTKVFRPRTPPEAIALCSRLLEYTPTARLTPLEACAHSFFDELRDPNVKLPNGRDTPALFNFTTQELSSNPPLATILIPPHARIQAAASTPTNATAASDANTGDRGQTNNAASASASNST
Text: Representative compounds were screened using the assay procedure for GSK3β kinase activity as described below.
The GSK3β kinase assay is run using the Ser/Thr 09 peptide Z-lyte assay kit according to manufacturer's instructions (Life Technologies—a Division of Thermo-Fisher). This is a non-radioactive assay using fluorescence resonance energy transfer (FRET) between coumarin and fluorescein to detect kinase activity which is represented as ratio of coumarin emission/fluorescein emission.
Briefly, recombinant GSK3β kinase, ATP and Ser/Thr peptide 09 are prepared in 1× Kinase buffer to final concentrations of 0.04 μg/mL, 46 μM, and 4 μM respectively. The mixture is allowed to incubate with the representative compounds for one hour at room temperature. All reactions were performed in duplicate. Unphosphorylated (“0% Control”) and phosphorylated (“100% control”) forms of […] serve as control reactions.
After incubation, diluted Development Buffer is added to the reaction and allowed to further incubate for one hour at room temperature. The plate is read at Ex 400 Em 455 to detect the coumarin signal and Ex 400 Em 520 to measure the signal (EnVision Multilabel Plate Reader, PerkinElmer).
The Emission ratio (Em) is calculated as a ratio of the coumarin (C) emission signal (at 445 nm)/Fluorescein (F) emission signal (at 520 nm). The percent phosphorylation is then calculated using the following formula: [1−((Em ratio×F100%)−C100%)/((C0%−C100%)+(Em ratio×(F100%−F0%)))].
Dose-response curves are generated and inhibitory concentration (IC50) values are calculated using non-linear regression curve fit in the Dotmatics' Studies Software (Bishops Stortford, UK).

SMILES	Conc (nM) of 50% TGF-β3 activity [1]	Max. Activity as % TGF-β3 activity [1]	Conc (nM) of Max. activity [1]	EC50 [2]	EC50 [3]	IC50 [4]	inhibition at 10 µM [3]	inhibition at 10 µM ([2]; read-out: percent inhibition at 10 μM)
c1cc2cc(c1)-c1cncc3[nH]c(nc13)-c1n[nH]c3ccc(cc13)-c1cncc(c1)CNC2 [Compound 8, (Z)-2^3H,3H-6-Aza-2(7,2)-imidazo[4,5-c]pyridina-3(3,5)-indazola-4(3,5)-pyridina-1(1,3)-benzenacycloheptaphane]	200 nM	558%	1700 nM	19 nM	65 nM	0.001 µM		
O=C1CCc2cccc(c2)-c2cncc3[nH]c(nc23)-c2n[nH]c3ccc(cc23)-c2cncc(c2)N1 [Compound 3, (Z)-2^3H,3^1H-5-Aza-2(7,2)-imidazo[4,5-c]pyridina-3 (3,5)-indazola-4(3,5)-pyridina-1(1,3)-benzenacyclooctaphan-6-one]	50 nM	225%	100 nM	42 nM	> 10000 nM	0.001 µM	43.7%	
CN1CCCn2cc(nn2)-c2cncc3[nH]c(nc23)-c2n[nH]c3ccc(cc23)-c2cncc(c2)C1 [Compound 45, (1^4Z,2^1Z)-6-Methyl-1 ^1H,2^3H,3^1H-6-aza-2(7,2)-imidazo[4,5-c]pyridina-3(3,5)-indazola-4(3,5)-pyridina-1(4,1)-triazolacyclononaphane]				1540 nM	> 10000 nM	0.001 µM	5.9%	
O=C1CCc2cccc(c2)-c2cccc3[nH]c(nc23)-c2n[nH]c3ccc(nc23)-c2cncc(c2)N1 [Compound 7, (Z)-2^1H,3^1H-8-Aza-2(5,3)-pyrazolo[4,3-b]pyridina-3 (2,4)-benzo[d]imidazola-1(3,5)-pyridina-4(1,3)-benzenacyclooctaphan-7-one]				560 nM	> 10000 nM	> 10 µM	11.6%	
O=C1NC2CCC(CC2)NCc2cncc(c2)-c2ccc3[nH]nc(c3c2)-c2nc3c1cccc3[nH]2 [Compound 64, (6^1s,6^4s,Z)-1^1H,2^1H-5,7-diaza-1 (2,4),2(3,5)-dibenzo[d]imidazola-3(3,5)-pyridina-6(1,4)-cyclohexanacyclooctaphan-8-one]				10000 nM	> 10000 nM	0.088 µM	12.7%	72%
O=C1CCc2cccc(c2)-c2cccc3[nH]c(nc23)-c2n[nH]c3ccc(cc23)-c2cncc(c2)N1 [Compound 1]	200 nM	497%	5000 nM	24 nM	381 nM	0.007 µM		
CN1CCCCN(C)c2nccc3[nH]c(nc23)-c2n[nH]c3ccc(cc23)-c2cncc(c2)C1 [Compound 51, (Z)-5,10-Dimethyl-1H,2^1H-5,10-diaza-1(2,4)-imidazo[4,5-c]pyridina-2(3,5)-indazola-3(3,5)-pyridinacyclodecaphane]	5000 nM	231%	5000 nM	203 nM	414 nM	0.002 µM		
Cn1ncc2c1CNCc1cccc(c1)-c1cccc3[nH]c(nc13)-c1n[nH]c3ccc-2cc13 [Compound 15, (Z)-Methyl-1^1H,2^1H,3^1H-6-aza-2(5,3),3 (2,4)-diindazola-1 (4,5)-pyrazola-4(1,3)-benzenacycloheptaphane]				87 nM	585 nM	0.01 µM		
O=C1CCc2cccc(c2)-c2nccc3[nH]c(nc23)-c2n[nH]c3ccc(cc23)-c2cncc(c2)N1 [Compound 2, (Z)-2^1H,3^1H-5-Aza-2(4,2)-imidazo[4,5-c]pyridina-3 (3,5)-indazola-4(3,5)-pyridina-1(1,3)-benzenacyclooctaphan-6-one]				224 nM	3820 nM	0.001 µM		
CN1Cc2cccc(c2)-c2cccc3[nH]c(nc23)-c2n[nH]c3ccc(cc23)-c2cnn(C)c2C1 [Compound 29]				77 nM	241 nM	0.015 µM		
c1cc2cc(c1)-c1cccc3[nH]c(nc13)-c1n[nH]c3ccc(cc13)-c1cncc(c1)OCCC2 [Compound 57]				637 nM	3010 nM	1.87 µM		
O=C1COc2cccc(c2)-c2cncc3[nH]c(nc23)-c2n[nH]c3ccc(cc23)-c2cncc(c2)N1 [Compound 38, (Z)-2^3H,3^1H-8-Oxa-5-aza-2(7,2)-imidazo[4,5-c]pyridina-3(3,5)-indazola-4(3,5)-pyridina-1(1,3)-benzenacyclooctaphan-6-one]	100 nM	185%	100 nM	38 nM	612 nM	0.001 µM		
O=C1CCc2cccc(c2)-c2cccc3[nH]c(nc23)-c2n[nH]c3ncc(cc23)-c2cncc(c2)N1 [Compound 5, (Z)-2^1H,3^1H-8-Aza-2(5,3)-pyrazolo[3,4-b]pyridina-3(2,4)-benzo[d]imidazola-1(3,5)-pyridina-4(1,3)-benzenacyclooctaphan-7-one]				78 nM	> 10000 nM	0.048 µM	9.2%	
CN1Cc2cncc(c2)-c2ccc3[nH]nc(c3c2)-c2nc3c(cccc3[nH]2)-c2cccc(c2)C1 [Compound 22, (Z)-6-Methyl-2^1H,3^1H-6-aza-2(5,3),3(2,4)-diindazola-1(3,5)-pyridina-4(1,3)-benzenacycloheptaphane]	50 nM	440%	600 nM	35 nM	161 nM	0.011 µM		
O=C1CCc2cccc(c2)-c2cccc3[nH]c(nc23)-c2n[nH]c3cnc(cc23)-c2cncc(c2)N1 [Compound 6, (Z)-2^1H,3^1H-8-Aza-2(5,3)-pyrazolo[3,4-c]pyridina-3(2,4)-benzo[d]imidazola-1(3,5)-pyridina-4(1,3)-benzenacyclooctaphan-7-one]				29 nM	> 10000 nM	0.004 µM	9.5%	
c1cc2cc(c1)-c1cccc3[nH]c(nc13)-c1n[nH]c3ccc(cc13)-c1cncc(c1)CNC2 [Compound 10, (Z)-2^1H,3^1H-6-Aza-2(5,3),3(2,4)-diindazola-1(3,5)-pyridina-4(1,3)-benzenacycloheptaphane]	50 nM	607%	600 nM	9980 nM	135 nM	0.004 µM		

— US10759799B2, “Indazole containing macrocycles and therapeutic uses thereof” (Samumed, LLC, priority 2018, dated 2020)
